The values below come from patent US10189836B2, “Therapeutic compounds, compositions and methods of use thereof” (Genentech, Inc., priority 2015, dated 2019).

The target of test [1] is isolated recombinant JAK2 kinase domain (Homo sapiens (Human), UniProt O60674). In words: JAK2 enzyme assay (Caliper LabChip, Ki). The conditions noted are these: isolated recombinant JAK2 kinase domain, 0.2 nM enzyme, ATP 25 μM. Format: biochemical.
Test [2] concerns the target isolated recombinant JAK1 kinase domain (Homo sapiens (Human), UniProt P23458). Description: JAK1 enzyme assay (Caliper LabChip, Ki). Type of test: biochemical. The conditions noted are these: isolated recombinant JAK1 kinase domain, 1.5 nM enzyme, ATP 25 μM.

What is called Ki is the equilibrium dissociation constant of an inhibitor or competing ligand from its target.

isolated recombinant JAK1 kinase domain, sequence (P23458 875-1153): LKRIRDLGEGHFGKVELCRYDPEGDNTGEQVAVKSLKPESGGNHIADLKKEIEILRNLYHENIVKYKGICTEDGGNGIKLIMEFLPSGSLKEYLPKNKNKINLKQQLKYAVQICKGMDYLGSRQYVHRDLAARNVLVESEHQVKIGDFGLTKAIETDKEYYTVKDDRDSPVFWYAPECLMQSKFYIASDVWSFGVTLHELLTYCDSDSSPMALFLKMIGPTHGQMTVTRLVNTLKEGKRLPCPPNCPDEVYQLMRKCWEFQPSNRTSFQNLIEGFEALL
isolated recombinant JAK2 kinase domain, sequence (O60674 849-1124): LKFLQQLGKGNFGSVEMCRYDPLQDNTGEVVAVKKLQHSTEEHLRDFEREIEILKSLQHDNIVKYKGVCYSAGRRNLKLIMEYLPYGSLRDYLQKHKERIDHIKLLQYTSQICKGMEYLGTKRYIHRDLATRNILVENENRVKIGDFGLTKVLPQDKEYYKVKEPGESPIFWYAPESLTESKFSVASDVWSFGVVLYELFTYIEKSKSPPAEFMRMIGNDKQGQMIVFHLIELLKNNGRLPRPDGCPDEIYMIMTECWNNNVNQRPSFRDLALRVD

Regarding `CN1CCN(C(=O)Cn2cc(Nc3nc4c(N5CC6CCC(C5)N6C(=O)[C@H]5C[C@@H](C(F)(F)F)C5)cccn4n3)cn2)CC1` [Example 15, formic acid; 1-(4-methylpiperazin-1-yl)-2-[4-[[8-[8-[3-(trifluoromethyl)cyclobutanecarbonyl]-3,8-diazabicyclo[3.2.1]octan-3-yl]-[1,2,4]triazolo[1,5-a]pyridin-2-yl]amino]pyrazol-1-yl]ethanone], the figures for the Ki in test [1] and in test [2] were 3.7 nM and 1.1 nM, respectively.

On to `CN1CCN(C(=O)Cn2cc(Nc3nc4c(N5CC6CCC(C5)N6C(=O)CC5CC5(F)F)cccn4n3)cn2)CC1` (stereo not drawn) [Example 16, 2-(2,2-difluorocyclopropyl)-1-[3-[2-[[1-[2-(4-methylpiperazin-1-yl)-2-oxo-ethyl]pyrazol-4-yl]amino]-[1,2,4]triazolo[1,5-a]pyridin-8-yl]-3,8-diazabicyclo[3.2.1]octan-8-yl]ethanone], for which the inhibition constant Ki in test [1] worked out at 1.8 nM; in test [2] it was 1 nM.

For `CN1CCN(C(=O)Cn2cc(Nc3nc4c(N5CC6CC(C5)N6Cc5ccc(Cl)cc5)cccn4n3)cn2)CC1` [Example 34, 2-[4-[(8-[6-[(4-chlorophenyl)methyl]-3,6-diazabicyclo[3.1.1]heptan-3-yl]-[1,2,4]triazolo[1,5-a]pyridin-2-yl)amino]-1H-pyrazol-1-yl]-1-(4-methylpiperazin-1-yl)ethan-1-one], the values for the inhibition constant Ki in test [1] and in test [2] were 271 nM and 68.8 nM, respectively.

For the compound `CN1CCN(C(=O)Cn2cc(Nc3nc4c(N5CC6CCC(C5)N6C(=O)C5CC5(F)F)cccn4n3)cn2)CC1` (stereo not drawn) [Example 37, 2-[4-[[8-[8-(2,2-difluorocyclopropanecarbonyl)-3,8-diazabicyclo[3.2.1]octan-3-yl]-[1,2,4]triazolo[1,5-a]pyridin-2-yl]amino]pyrazol-1-yl]-1-(4-methylpiperazin-1-yl)ethanone], the Ki in test [1] is 1.8 nM; in test [2], 1.3 nM.

For `CN1CCN(C(=O)Cn2cc(Nc3nc4c(N5CC6CCC(C5)N6C(=O)C5(C(F)(F)F)CC5)cccn4n3)cn2)CC1` [Example 38, 1-(4-methylpiperazin-1-yl)-2-[4-[[8-[8-[1-(trifluoromethyl)cyclopropanecarbonyl]-3,8-diazabicyclo[3.2.1]octan-3-yl]-[1,2,4]triazolo[1,5-a]pyridin-2-yl]amino]pyrazol-1-yl]ethanone], the results for the Ki in test [1] and in test [2] were 1.8 nM and 1.3 nM, respectively.

Turning to `O=C(Cn1cc(Nc2nc3c(N4CC5CCC(C4)N5C(=O)N4CC(C(F)(F)F)C4)cccn3n2)cn1)N1CCN(C2CCOCC2)CC1` [Example 39, 1-(4-tetrahydropyran-4-ylpiperazin-1-yl)-2-[4-[[8-[8-[3-(trifluoromethyl)azetidine-1-carbonyl]-3,8-diazabicyclo[3.2.1]octan-3-yl]-[1,2,4]triazolo[1,5-a]pyridin-2-yl]amino]pyrazol-1-yl]ethanone], the Ki in test [1] is 0.4 nM; in test [2], 0.7 nM.

Take `CN1CCN(C(=O)Cn2cc(Nc3nc4c(N5CC6CCCC(C5)N6C(=O)[C@H]5C[C@H](C(F)(F)F)C5)cccn4n3)cn2)CC1` [Example 40, 1-(4-methylpiperazin-1-yl)-2-[4-[[8-[9-[3-(trifluoromethyl)cyclobutanecarbonyl]-3,9-diazabicyclo[3.3.1]nonan-3-yl]-[1,2,4]triazolo[1,5-a]pyridin-2-yl]amino]pyrazol-1-yl]ethanone]: the Ki in test [1] and in test [2] was 0.6 nM throughout.

Consider `O=C(Cn1cc(Nc2nc3c(N4CC5CCC(C4)N5C(=O)CCC(F)(F)F)cccn3n2)cn1)N1CCC(CN2CCOCC2)CC1` [Example 41, 4,4,4-trifluoro-1-[3-[2-[[1-[2[4-(morpholinomethyl)-1-piperidyl]-2-oxo-ethyl]pyrazol-4-yl]amino]-[1,2,4]triazolo[1,5-a]pyridin-8-yl]-3,8-diazabicyclo[3.2.1]octan-8-yl]butan-1-one], for which the Ki in test [1] came to 4.6 nM; in test [2], 2.6 nM.

As to `CN1CCN(C(=O)Cn2cc(Nc3nc4c(N5CC6CCC(C5)N6C(=O)Cc5ccncc5)cccn4n3)cn2)CC1` [Example 42, 1-[3-[2-[[1-[2-(4-methylpiperazin-1-yl)-2-oxo-ethyl]pyrazol-4-yl]amino]-[1,2,4]triazolo[1,5-a]pyridin-8-yl]-3,8-diazabicyclo[3.2.1]octan-pyridyl)ethanone], the inhibitory constant (Ki) in test [1] was determined as 5.7 nM; in test [2] it was 1.6 nM.

For `CN1CCN(C(=O)Cn2cc(Nc3nc4c(N5CC6CCC(C5)C6C(=O)N5CC(C(F)(F)F)C5)cccn4n3)cn2)CC1` (stereo not drawn) [Example 43, 1-(4-methylpiperazin-1-yl)-2-(4-[[8-(8-[[3-(trifluoromethyl)azetidin-1-yl]carbonyl]-3-azabicyclo[3.2.1]octan-3-yl)-[1,2,4]triazolo[1,5-a]pyridin-2-yl]amino]-1H-pyrazol-1-yl)ethan-1-one], the Ki in test [1] was determined as 1.9 nM; in test [2] it was 1.1 nM.

`O=C(Cn1cc(Nc2nc3c(N4CC5CCC(C4)N5C(=O)N4CC(C(F)(F)F)C4)cccn3n2)cn1)N1CCC(N2CCOCC2)CC1` [Example 44, 1-(4-morpholino-1-piperidyl)-2-[4-[[8-[8-[3-(trifluoromethyl)azetidine-1-carbonyl]-3,8-diazabicyclo[3.2.1]octan-3-yl]-[1,2,4]triazolo[1,5-a]pyridin-2-yl]amino]pyrazol-1-yl]ethanone]: the Ki in test [1] came out at 0.6 nM; in test [2], 0.9 nM.

As for `CN1CCN(C(=O)Cn2cc(Nc3nc4c(N5CC6CCC(C5)N6C(=O)COCC(F)(F)F)cccn4n3)cn2)CC1` [Example 45, 1-(4-methylpiperazin-1-yl)-2-[4-[[8-[8-[2-(2,2,2-trifluoroethoxy)acetyl]-3,8-diazabicyclo[3.2.1]octan-3-yl]-[1,2,4]triazolo[1,5-a]pyridin-2-yl]amino]pyrazol-1-yl]ethanone], the Ki in test [1] amounted to 3.5 nM; in test [2], 1 nM.

As for `CN1CCN(C(=O)Cn2cc(Nc3nc4c(N5CC6CCC(C5)N6C(=O)C5CC(F)(F)C5)cccn4n3)cn2)CC1` [Example 46, 2-[4-[[8-[8-(3,3-difluorocyclobutanecarbonyl)-3-yl]-3,8-diazabicyclo[3.2.1]octan-[1,2,4]triazolo[1,5-a]pyridin-2-yl]amino]pyrazol-1-yl]-1-(4-methylpiperazin-1-yl)ethanone], the Ki was found to be 1.7 nM in test [1] and 1.4 nM in test [2].

For `CC(CC(F)(F)F)C(=O)N1C2CCC1CN(c1cccn3nc(Nc4cnn(CC(=O)N5CCN(C)CC5)c4)nc13)C2` (stereo not drawn) [Example 47, 4,4,4-trifluoro-2-methyl-1-[3-[2-[[1-[2-(4-methylpiperazin-1-yl)-2-oxo-ethyl]pyrazol-4-yl]amino]-[1,2,4]triazolo[1,5-a]pyridin-8-yl]-3,8-diazabicyclo[3.2.1]octan-8-yl]butan-1-one], the Ki worked out at 2 nM in test [1] and 1.8 nM in test [2].

Regarding `CN1CCN(C(=O)Cn2cc(Nc3nc4c(N5C6CC5CN(C(=O)CCC(F)(F)F)C6)cccn4n3)cn2)CC1` [Example 48, 4,4,4-trifluoro-1-[6-[2-[[1-[2-(4-methylpiperazin-1-yl)-2-oxo-ethyl]pyrazol-4-yl]amino]-[1,2,4]triazolo[1,5-a]pyridin-8-yl]-3,6-diazabicyclo[3.1.1]heptan-3-yl]butan-1-one], the inhibition constant Ki in test [1] was above 320 nM; in test [2], above 560 nM.

Regarding `CN1CCN(C(=O)Cn2cc(Nc3nc4c(N5CC6CCC(C5)N6C(=O)C5C6CC(F)(F)CC65)cccn4n3)cn2)CC1` (stereo not drawn) [Example 49, 2-[4-[[8-[8-(3,3-difluorobicyclo[3.1.0]hexane-6-carbonyl)-3,8-diazabicyclo[3.2.1]octan-3-yl]-[1,2,4]triazolo[1,5-a]pyridin-2-yl]amino]pyrazol-1-yl]-1-(4-methylpiperazin-1-yl)ethanone], the results for the Ki in test [1] and in test [2] were 4.1 nM and 1.5 nM, respectively.

Regarding `CN1CCN(C(=O)Cn2cc(Nc3nc4c(N5CC6CCC(C5)N6C(=O)C5CCSC5)cccn4n3)cn2)CC1` (stereo not drawn) [Example 50, 1-(4-methylpiperazin-1-yl)-2-[4-[[8-[8-(tetrahydrothiophene-3-carbonyl)-3,8-diazabicyclo[3.2.1]octan-3-yl]-[1,2,4]triazolo[1,5-a]pyridin-2-yl]amino]pyrazol-1-yl]ethanone], the Ki in test [1] stood at 1.5 nM; in test [2], 1.2 nM.

On to `CN1CCN(C(=O)Cn2cc(Nc3nc4c(N5CC6CCC(C5)N6C(=O)C5CCC(F)(F)CC5)cccn4n3)cn2)CC1` [Example 51, 2-[4-[[8-[8-(4,4-difluorocyclohexanecarbonyl)-3,8-diazabicyclo[3.2.1]octan-3-yl]-[1,2,4]triazolo[1,5-a]pyridin-2-yl]amino]pyrazol-1-yl]-1-(4-methylpiperazin-1-yl)ethanone], for which the Ki in test [1] came to 4.8 nM; in test [2], 2 nM.

As for `CN1CCN(C(=O)Cn2cc(Nc3nc4c(N5CC6CCC(C5)N6C(=O)C5CCSCC5)cccn4n3)cn2)CC1` [Example 52, 1-(4-methylpiperazin-1-yl)-2-[4-[[8-[8-(tetrahydrothiopyran-4-carbonyl)-3,8-diazabicyclo[3.2.1]octan-3-yl]-[1,2,4]triazolo[1,5-a]pyridin-2-yl]amino]pyrazol-1-yl]ethanone], the Ki stood at 5.2 nM in test [1] and 3.1 nM in test [2].

Regarding `CN1CCN(C(=O)Cn2cc(Nc3nc4c(N5CC6CCC(C5)N6C(=O)C5CC6CCC5O6)cccn4n3)cn2)CC1` (stereo not drawn) [Example 53, 1-(4-methylpiperazin-1-yl)-2-[4-[[8-[8-(7-oxabicyclo[2.2.1]heptane-3-carbonyl)-3,8-diazabicyclo[3.2.1]octan-3-yl]-[1,2,4]triazolo[1,5-a]pyridin-2-yl]amino]pyrazol-1-yl]ethanone], the inhibition constant Ki in test [1] came out at 2.8 nM; in test [2], 1.9 nM.

`CN1CCN(C(=O)Cn2cc(Nc3nc4c(N5CC6CCC(C5)N6C(=O)COC(F)(F)F)cccn4n3)cn2)CC1` [Example 54, 1-(4-methylpiperazin-1-yl)-2-[4-[[8-[8-[2-(trifluoromethoxy)acetyl]-3,8-diazabicyclo[3.2.1]octan-3-yl]-[1,2,4]triazolo[1,5-a]pyridin-2-yl]amino]pyrazol-1-yl]ethanone]: the Ki came to 4.9 nM in test [1] and 1.6 nM in test [2].
